Data: patent US7544814B2, “[3.2.0] Heterocyclic compounds and methods of using the same” (Nereus Pharmaceuticals, Inc., priority 2004, dated 2009)
Like-named read-outs stand apart in the source and are kept apart here.

Experiments:
[1] = target: T1, chymotrypsin-like activity of 20S proteasomes in RPMI 8226 cells (Homo sapiens, UniProt P28074); test: Chymotrypsin-like activity of 20S proteasomes in lysates of treated RPMI 8226 cells; type: cell-based; conditions: RPMI-8226, read-out: % inhibition of the chymotrypsin-like activity of 20S proteasomes in RPMI 8226 cell lysates
T1 construct: added to 2.5×10^5/ml RMPI 8226 cells; endogenous in cells; host or cells: RPMI 8226 (ATCC CCL-155)
T1 sequence (P28074 60-263): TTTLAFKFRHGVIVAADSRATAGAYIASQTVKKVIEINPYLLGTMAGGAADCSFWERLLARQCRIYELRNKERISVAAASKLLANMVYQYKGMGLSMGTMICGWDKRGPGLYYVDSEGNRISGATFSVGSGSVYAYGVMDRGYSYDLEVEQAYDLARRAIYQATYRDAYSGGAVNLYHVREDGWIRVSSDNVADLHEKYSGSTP
Method: RPMI 8226 (ATCC, CCL-155), the human multiple myeloma cell line, was cultured in RPMI 1640 medium supplemented with 2 mM L-glutamine, 100 units/ml penicillin, 100 μg/ml streptomycin, 1 mM sodium pyruvate and 10% heat inactivated fetal bovine serum at 37° C., 5% CO2 and 95% humidified air. […] DMSO was used as the vehicle control at a final concentration of 0.1%. Following 1 hr incubation of RMPI 8226 cells with the compounds, the cells were pelleted by centrifugation at 2,000 rpm for 10 sec at room temperature and washed 3× with ice-cold 1× Dulbecco's Phosphate-Buffered Saline (DPBS, Mediatech, Herndon, Va.). DPBS washed cells were lysed on ice for 15 min in lysis buffer (20 mM HEPES, 0.5 mM EDTA, 0.05% Triton X-100, pH 7.3) supplemented with protease inhibitor cocktail (Roche Diagnostics, Indianapolis, Ind.). Cell debris was pelleted by centrifugation at 14,000 rpm for 10 min, 4° C. and supernatants (=cell lysates) were transferred to a new tube. Protein concentration was determined by the BCA protein assay kit (Pierce Biotechnology, Rockford, Ill.). […] The released coumarin (AMC) was measured fluorometrically by using λex=390 nm and λem=460 nm. The assay was performed in a microtiter plate (Corning 3904) and followed kinetically with measurements every five minutes for 2 hr. The total amount of protein used for each assay was 20 μg. The final concentration of Suc-LLVY-AMC and DMSO was 20 μM and 0.2%, respectively.

PC-3 = test: Cell growth inhibition (resazurin), PC-3; type: cell-based, human; conditions: from EC50 values
MES-SA = test: Cell growth inhibition (resazurin), MES-SA; type: cell-based, human; conditions: from EC50 values
MES-SA/Dx5 = test: Cell growth inhibition (resazurin), multidrug resistant MES-SA/Dx5; type: cell-based, human; conditions: from EC50 values
HL-60 = test: Cell growth inhibition (resazurin), HL-60; type: cell-based, human; conditions: from EC50 values
HL-60/MX2 = test: Cell growth inhibition (resazurin), multidrug resistant HL-60/MX2; conditions: from EC50 values
Method: Concentrations ranging from 6.32 μM to 2 nM were tested for II-2 and II-4.
HL-60/MX2 is a multidrug resistant tumor cell line derived from the human promyelocytic leukemia cell line, HL-60 and expresses reduced topoisomerase II activity. […] Mitoxantrone, the topoisomerase II targeting agent was included as a control.

RPMI 8226 = test: cells
Method: RPMI 8226 (CCL-155), HT-29 (HTB-38), and B16-F10 (CRL-6475) cells were purchased from ATCC. RPMI 8226 cells were maintained in RPMI 1640 media supplemented with 10% (v/v) FBS, 2 mM L-glutamine, 1 mM sodium pyruvate and Penicillin/Streptomycin at 100 IU/ml and 100 μg/ml, respectively. HT-29 cells were maintained in McCoys 5A supplemented with 10% (v/v) FBS, 2 mM L-glutamine, 1 mM sodium pyruvate, 1% (v/v) non-essential amino acids, 10 mM HEPES and Penicillin/Streptomycin at 100 IU/ml and 100 μg/ml, respectively. B16-F10 cells were maintained in DMEM supplemented with 10% (v/v) FBS, 2 mM L-glutamine, 10 mM HEPES and Penicillin/Streptomycin at 100 IU/ml and 100 μg/ml, respectively.
RPMI 8226 cells were seeded at 2×10^4 cells/well in 90 μl RPMI media containing 10% (v/v) FBS or 1% (v/v) FBS into 96 well black-walled, clear-bottom tissue culture plates. […] Formulae II-16, II-17 and Formula II-18 were serially diluted in media containing 1% or 10% FBS and added in triplicate to the test wells. […] The final concentration of Formula II-18 ranged from 2 μM to 630 pM.

HT-29 = test: Cell growth inhibition (resazurin), HT-29; conditions: from EC50 values
B16-F10 = test: Cell growth inhibition (resazurin), B16-F10; conditions: from EC50 values
NCI-H292 = test: Cell growth inhibition (resazurin), NCI-H292; conditions: from EC50 values
MDA-MB-231 = test: Cell growth inhibition (resazurin), MDA-MB-231; conditions: from EC50 values

## C[C@H]1C(=O)N[C@@]2(C(O)[C@@H]3C=CCCC3)C(=O)O[C@@]12C (single isomer, unassigned) [Formula II-20]
[1]
  inhibition at 0.001 µM: 3 ± 10%
  inhibition at 0.005 µM: 31 ± 9%
  inhibition at 0.01 µM: 37 ± 3%
  inhibition at 0.05 µM: 64 ± 3%
  inhibition at 0.1 µM: 66 ± 3%
  inhibition at 0.5 µM: 71 ± 2%
  inhibition at 1 µM: 73 ± 2%
  inhibition at 10 µM: 87 ± 4%

## C[C@@]12OC(=O)[C@]1([C@@H](O)[C@@H]1C=CCCC1)NC(=O)[C@@H]2CCBr [Formula II-18]
PC-3
  cytotoxicity against PC-3, in words: cytotoxic
MES-SA
  cytotoxic activity against MES-SA, in words: cytotoxic activity
MES-SA/Dx5
  cytotoxic activity against MES-SA/Dx5, in words: cytotoxic activity
HL-60
  cytotoxic activity against HL-60, in words: retained cytotoxic activity
HL-60/MX2
  cytotoxic activity against HL-60/MX2, in words: retained cytotoxic activity
RPMI 8226; 1% or 10% FBS
  cytotoxicity against RPMI 8226 in media containing 1% or 10% FBS, in words: cytotoxic
RPMI 8226; Homo sapiens, RPMI-8226, read-out: 1% FBS, EC50, RPMI 8226, media containing 1% FBS, single experiments
  EC50: 15 nM
RPMI 8226; Homo sapiens, RPMI-8226, read-out: 10% FBS, EC50, RPMI 8226, media containing 10% FBS, single experiments
  EC50: 20 nM
RPMI 8226; Homo sapiens, RPMI-8226, read-out: Mean 1% FBS, EC50, RPMI 8226, media containing 1% FBS, mean
  EC50: 14 nM
RPMI 8226; Homo sapiens, RPMI-8226, read-out: Mean 10% FBS, EC50, RPMI 8226, media containing 10% FBS, mean
  EC50: 20 nM
RPMI 8226; RPMI 8226
  change in the mean EC50, 10% FBS relative to 1% FBS: less than three fold decrease
RPMI 8226; read-out: 1% FBS, EC50, RPMI 8226, media containing 1% FBS, single experiments
  EC50: 13 nM
HT-29
  cytotoxicity against HT-29, in words: cytotoxic
B16-F10
  cytotoxicity against B16-F10, in words: cytotoxic
NCI-H292
  cytotoxicity against NCI-H292, in words: cytotoxic
MDA-MB-231
  cytotoxicity against MDA-MB-231, in words: cytotoxic
